Laboratory results from patent US12157741B2, “Macrocyclic inhibitors of DYRK1A” (DANA-FARBER CANCER INSTITUTE, INC., priority 2018, dated 2024).

What was measured:
various enzymes [1] = target: T1, various enzymes (Homo sapiens, UniProt O43283); conditions: LZK; 1 uM
T1 sequence (O43283 1-966): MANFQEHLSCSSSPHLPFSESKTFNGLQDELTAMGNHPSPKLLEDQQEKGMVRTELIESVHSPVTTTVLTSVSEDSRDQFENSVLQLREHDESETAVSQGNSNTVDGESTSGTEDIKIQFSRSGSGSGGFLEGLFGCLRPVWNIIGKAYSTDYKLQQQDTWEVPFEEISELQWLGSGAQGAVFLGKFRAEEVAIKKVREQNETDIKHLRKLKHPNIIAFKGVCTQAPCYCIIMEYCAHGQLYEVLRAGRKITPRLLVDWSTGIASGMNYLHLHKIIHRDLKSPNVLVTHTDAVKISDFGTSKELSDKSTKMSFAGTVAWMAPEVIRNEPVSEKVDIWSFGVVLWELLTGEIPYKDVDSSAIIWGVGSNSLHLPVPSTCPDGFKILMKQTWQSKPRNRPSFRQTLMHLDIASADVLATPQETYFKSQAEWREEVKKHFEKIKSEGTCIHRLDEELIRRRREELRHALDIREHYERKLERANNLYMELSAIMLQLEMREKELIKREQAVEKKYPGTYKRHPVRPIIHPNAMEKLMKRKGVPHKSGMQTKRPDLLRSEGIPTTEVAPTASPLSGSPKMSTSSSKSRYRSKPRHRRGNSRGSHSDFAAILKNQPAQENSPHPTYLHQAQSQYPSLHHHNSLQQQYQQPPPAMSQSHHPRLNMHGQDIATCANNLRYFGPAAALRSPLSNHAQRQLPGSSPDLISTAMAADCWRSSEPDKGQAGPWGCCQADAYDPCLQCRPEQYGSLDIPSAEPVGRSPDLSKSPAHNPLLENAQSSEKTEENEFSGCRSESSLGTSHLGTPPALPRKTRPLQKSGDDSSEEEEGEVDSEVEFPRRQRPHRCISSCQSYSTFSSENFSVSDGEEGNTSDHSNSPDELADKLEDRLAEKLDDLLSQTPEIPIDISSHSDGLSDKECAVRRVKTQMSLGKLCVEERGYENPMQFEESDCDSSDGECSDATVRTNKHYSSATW
Method: (§1) Ambit profiling from Eurofins (formerly Discoverx) was conducted in accordance with the manufacturer's instructions.

various enzymes [2] = target: various enzymes (Homo sapiens, UniProt P43405); conditions: SYK; 1 uM
Method: as §1

various enzymes [3] = target: T2, various enzymes (Homo sapiens, UniProt Q12852); conditions: DLK; 1 uM
T2 sequence (Q12852 1-859): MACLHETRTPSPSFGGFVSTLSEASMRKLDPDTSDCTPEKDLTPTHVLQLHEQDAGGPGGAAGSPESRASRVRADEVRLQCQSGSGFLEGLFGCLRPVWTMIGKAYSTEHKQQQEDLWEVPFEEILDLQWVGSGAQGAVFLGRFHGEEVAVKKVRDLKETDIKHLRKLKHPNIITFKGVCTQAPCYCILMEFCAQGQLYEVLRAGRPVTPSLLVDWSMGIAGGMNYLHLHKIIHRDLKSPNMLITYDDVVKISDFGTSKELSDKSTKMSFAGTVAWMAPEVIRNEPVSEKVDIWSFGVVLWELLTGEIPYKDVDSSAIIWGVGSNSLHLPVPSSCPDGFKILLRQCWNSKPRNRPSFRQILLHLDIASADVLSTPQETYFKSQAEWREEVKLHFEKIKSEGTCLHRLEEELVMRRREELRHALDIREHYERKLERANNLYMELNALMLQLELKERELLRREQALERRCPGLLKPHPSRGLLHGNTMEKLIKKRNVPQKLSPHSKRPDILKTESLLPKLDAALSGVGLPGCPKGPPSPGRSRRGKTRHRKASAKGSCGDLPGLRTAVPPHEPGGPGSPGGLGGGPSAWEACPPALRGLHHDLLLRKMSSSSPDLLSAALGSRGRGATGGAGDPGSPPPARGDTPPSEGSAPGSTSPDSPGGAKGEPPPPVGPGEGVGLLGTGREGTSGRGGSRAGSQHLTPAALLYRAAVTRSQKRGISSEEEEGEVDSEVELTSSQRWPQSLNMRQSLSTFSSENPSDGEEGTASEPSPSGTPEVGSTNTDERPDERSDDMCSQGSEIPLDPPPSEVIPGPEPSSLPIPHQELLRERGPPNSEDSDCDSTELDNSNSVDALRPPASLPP
Method: as §1

various enzymes [4] = target: T3, various enzymes (Homo sapiens, UniProt Q8IVH8); conditions: MAP4K3; 1 uM
T3 sequence (Q8IVH8 1-894): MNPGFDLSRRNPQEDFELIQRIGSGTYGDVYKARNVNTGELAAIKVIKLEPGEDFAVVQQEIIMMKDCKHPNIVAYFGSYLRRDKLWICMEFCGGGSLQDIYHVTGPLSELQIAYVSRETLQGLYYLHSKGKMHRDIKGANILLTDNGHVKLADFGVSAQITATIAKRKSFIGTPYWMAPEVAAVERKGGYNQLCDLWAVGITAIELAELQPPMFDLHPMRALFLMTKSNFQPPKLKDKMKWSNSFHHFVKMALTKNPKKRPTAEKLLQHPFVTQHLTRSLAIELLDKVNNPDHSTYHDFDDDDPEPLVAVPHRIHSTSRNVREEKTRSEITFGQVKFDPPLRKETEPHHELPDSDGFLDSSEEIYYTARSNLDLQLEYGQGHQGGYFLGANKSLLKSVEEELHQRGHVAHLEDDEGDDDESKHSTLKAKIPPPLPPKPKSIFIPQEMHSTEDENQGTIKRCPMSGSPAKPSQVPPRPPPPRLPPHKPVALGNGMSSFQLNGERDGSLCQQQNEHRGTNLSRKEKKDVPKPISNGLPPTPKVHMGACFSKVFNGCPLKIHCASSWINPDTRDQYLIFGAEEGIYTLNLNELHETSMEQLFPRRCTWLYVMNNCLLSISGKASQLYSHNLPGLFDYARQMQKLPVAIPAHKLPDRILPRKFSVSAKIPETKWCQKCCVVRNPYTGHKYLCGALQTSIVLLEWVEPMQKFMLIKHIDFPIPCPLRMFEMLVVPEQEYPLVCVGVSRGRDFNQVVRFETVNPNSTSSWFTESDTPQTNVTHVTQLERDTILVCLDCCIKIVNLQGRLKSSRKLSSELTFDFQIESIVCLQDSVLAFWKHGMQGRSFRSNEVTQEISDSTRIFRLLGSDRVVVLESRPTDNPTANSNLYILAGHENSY
Method: as §1

## CN1Cc2nn(C)cc2-c2cnc3[nH]cc(c3c2)-c2cnn(c2)CCCC1=O [Compound 41, (Z)-31,5-dimethyl-11H,21H,31H-5-aza-2(3,5)-pyrrolo[2,3-b]pyridina-1(4,1),3(4,3)-dipyrazolacyclononaphan-6-one]
Various enzymes [1]
  Ambit profiling: 11
Various enzymes [2]
  Ambit profiling: 70
Various enzymes [3]
  Ambit profiling: 23
Various enzymes [4]
  Ambit profiling: 7.8

## CN1Cc2nn(C)c(C#N)c2-c2cnc3[nH]cc(c3c2)-c2cn(nc2C(F)(F)F)CCCC1=O [Compound 48, (Z)-31,5-dimethyl-6-oxo-13-(trifluoromethyl)-11H,21H,31H-5-aza-2(3,5)-pyrrolo[2,3-b]pyridina-1(4,1),3(4,3)-dipyrazolacyclononaphane-35-carbonitrile]
Various enzymes [1]
  Ambit profiling: 100
Various enzymes [2]
  Ambit profiling: 68
Various enzymes [3]
  Ambit profiling: 100
Various enzymes [4]
  Ambit profiling: 77
